Assay results reported in publication PMC10279719 (Nature Communications, 2023).
Each block holds one compound with its values, some of them ahead of it.

How the values were obtained:
14-3-3γ = biological target: T1, 14-3-3γ (Homo sapiens, UniProt P61981); assay: SPR, PEAK peptides binding to immobilised 14-3-3γ; conditions: peptide analyte over amine-coupled 14-3-3γ (CM5); Biacore S200, HBS-TP pH 7.4, 20 °C; steady-state 1:1 fit; mean ± S.E.M.; read-out: SPR KD, 14-3-3γ (gamma)
T1 construct: 14-3-3γ (UniProt P61981-1; residues 1–247); 8-His tag with TEV protease cleavage site (N); made in house; host or cells: E. coli C41 (DE3)
T1 sequence (P61981 1-247): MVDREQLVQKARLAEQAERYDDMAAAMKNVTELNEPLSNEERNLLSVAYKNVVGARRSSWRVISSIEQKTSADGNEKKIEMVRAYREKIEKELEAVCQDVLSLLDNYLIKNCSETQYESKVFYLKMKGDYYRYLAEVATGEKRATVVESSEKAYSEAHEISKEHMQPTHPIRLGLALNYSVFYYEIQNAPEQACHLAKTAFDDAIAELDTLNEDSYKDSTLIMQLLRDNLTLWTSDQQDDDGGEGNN
Protocol: (§1) Purified […]3 was diluted to 5 μg ml^-1 in 10 mM sodium acetate pH 4.0 and amine coupled at 25 °C to a Series S CM5 sensor chip, in HBS-N running buffer (20 mM HEPES pH 7.4, 150 mM NaCl) to a final immobilization level of 1100-1400 response units (RU), followed by surface deactivation using 1 M ethanolamine. A blank activation/deactivation was used for the reference surface. […] Samples were injected in a multi-cycle run (flow rate 30 μl min^-1, contact time of 60 s, dissociation 120 s) without regeneration. Sensorgrams were double referenced, and steady-state binding data fitted using a 1:1 binding model using Biacore S200 Evaluation Software (Cytiva, v. 1.1). […] Representative sensorgrams and fitted dissociation constant (KD) values, depicted as mean ± S.E.M.

14-3-3ε = biological target: T2, 14-3-3ε (Homo sapiens, UniProt P62258); assay: SPR, PEAK tandem peptides binding to immobilised 14-3-3ε; conditions: peptide analyte over amine-coupled 14-3-3ε (CM5); Biacore S200, HBS-TP pH 7.4, 20 °C; steady-state 1:1 fit; mean ± S.E.M.; read-out: SPR KD, 14-3-3ε (epsilon)
T2 construct: 14-3-3ε (UniProt P62258-1; residues 1–255); 8-His tag with TEV protease cleavage site (N); made in house; host or cells: E. coli C41 (DE3)
T2 sequence (P62258 1-255): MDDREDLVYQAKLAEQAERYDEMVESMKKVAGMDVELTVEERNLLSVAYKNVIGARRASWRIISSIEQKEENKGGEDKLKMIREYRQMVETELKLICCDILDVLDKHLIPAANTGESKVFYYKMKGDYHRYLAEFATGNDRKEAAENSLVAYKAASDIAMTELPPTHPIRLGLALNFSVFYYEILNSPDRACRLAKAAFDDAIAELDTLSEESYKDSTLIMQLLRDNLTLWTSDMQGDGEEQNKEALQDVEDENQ
Protocol: Purified […]3 was diluted to 5 μg ml^-1 in 10 mM sodium acetate pH 4.0 and amine coupled at 25 °C to a Series S CM5 sensor chip, in HBS-N running buffer (20 mM HEPES pH 7.4, 150 mM NaCl) to a final immobilization level of 1100-1400 response units (RU), followed by surface deactivation using 1 M ethanolamine. A blank activation/deactivation was used for the reference surface. […] PEAK PRM peptides: […] Samples were injected in a multi-cycle run (flow rate 30 μl min^-1, contact time of 60 s, dissociation 120 s) without regeneration. Sensorgrams were double referenced, and steady-state binding data fitted using a 1:1 binding model using Biacore S200 Evaluation Software (Cytiva, v. 1.1). […] Representative sensorgrams and fitted dissociation constant (KD) values, depicted as mean ± S.E.M.

14-3-3η = biological target: T3, 14-3-3η (Homo sapiens, UniProt Q04917); assay: SPR, PEAK tandem peptides binding to immobilised 14-3-3η; conditions: peptide analyte over amine-coupled 14-3-3η (CM5); Biacore S200, HBS-TP pH 7.4, 20 °C; steady-state 1:1 fit; mean ± S.E.M.; read-out: SPR KD, 14-3-3η (eta)
T3 construct: 14-3-3η (UniProt Q04917-1; residues 1–246); 8-His tag with TEV protease cleavage site (N); made in house; host or cells: E. coli C41 (DE3)
T3 sequence (Q04917 1-246): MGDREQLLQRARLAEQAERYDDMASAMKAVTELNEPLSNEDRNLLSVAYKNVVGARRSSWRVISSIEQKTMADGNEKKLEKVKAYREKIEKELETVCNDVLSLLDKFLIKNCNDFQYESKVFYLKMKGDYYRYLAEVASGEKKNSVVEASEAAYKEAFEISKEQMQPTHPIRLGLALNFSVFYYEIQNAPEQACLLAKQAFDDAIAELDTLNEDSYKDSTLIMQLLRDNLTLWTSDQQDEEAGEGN
Protocol: as §1

14-3-3σ (Homo sapiens) = biological target: T4, 14-3-3σ (Homo sapiens); assay: SPR, PEAK tandem peptides binding to immobilised 14-3-3σ; conditions: peptide analyte over amine-coupled 14-3-3σ (CM5); Biacore S200, HBS-TP pH 7.4, 20 °C; steady-state 1:1 fit; mean ± S.E.M.; read-out: SPR KD, 14-3-3σ (sigma)
T4 construct: 14-3-3ς (UniProt P63104-1; residues 1–245); 8-His tag with TEV protease cleavage site (N); made in house; host or cells: E. coli C41 (DE3)
T4 sequence (P63104 whole entry, the tested form may be a part): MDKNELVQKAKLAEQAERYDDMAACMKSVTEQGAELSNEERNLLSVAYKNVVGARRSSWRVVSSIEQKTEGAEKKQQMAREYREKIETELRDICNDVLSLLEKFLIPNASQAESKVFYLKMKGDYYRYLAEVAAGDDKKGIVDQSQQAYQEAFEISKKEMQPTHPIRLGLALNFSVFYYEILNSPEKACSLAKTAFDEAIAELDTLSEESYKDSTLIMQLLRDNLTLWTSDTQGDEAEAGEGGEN
Protocol: as §1

Grb2^FL = conditions: isothermal titration calorimetry, shown previously; read-out: ITC KD, Grb2^FL; cited from earlier work
[1] = tested on: PEAK3 pY24 phosphorylation in MCF-10A cells; conditions: MCF-10A cells treated with inhibitor; cited from earlier work
CrkII^NSH3 = biological target: T5, CrkII^NSH3 (Homo sapiens, UniProt P46108); assay: SPR, CrkII NSH3 binding to immobilised PEAK proteins; conditions: read-out: CrkII NSH3 SPR KD; interactor as analyte over biotinylated PEAK protein captured with biotin CAPture kit; Biacore 8K+, HBS-TP, 20 °C; steady-state fit; mean ± SD (N = 2); read-out: CrkII-SH2 SPR KD
T5 construct: CrkII^NSH3; UniProt P46108-1, residues 134–191; 8-His tag with TEV protease cleavage site (N); made in house; host or cells: E. coli C41 (DE3)
T5 sequence (P46108 134-191): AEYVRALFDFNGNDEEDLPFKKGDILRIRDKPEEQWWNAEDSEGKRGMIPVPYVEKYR
Protocol: (§2) SPR binding studies of PEAK PRM peptides to CrkII^NSH3 were performed using a Biacore S200 Instrument (Cytiva). Purified CrkII^NSH3 was diluted to 5 µg ml^−1 in 10 mM sodium acetate pH 4.0 and amine coupled at 25 °C to a Series S CM5 sensor chip, in HBS-N running buffer (20 mM HEPES pH 7.4, 150 mM NaCl) to a final immobilization level of 1100–1400 response units (RU), followed by surface deactivation using 1 M ethanolamine. A blank activation/deactivation was used for the reference surface. Peptide binding studies were performed at 20 °C in HBS-TP running buffer (20 mM HEPES pH 7.4, 150 mM NaCl, 1 mM TCEP, 0.005% (v/v) Tween-P20). […] Peptide stocks were further diluted to in running buffer to 10 or 20 µM and prepared as a 11-point concentration series (2-fold serial dilution, […] for PEAK PRM peptides, or 20 µM–20 nM for PEAK tandem motif peptides). Samples were injected in a multi-cycle run (flow rate 30 µl min^−1, contact time of 60 s, dissociation 120 s) without regeneration. Sensorgrams were double referenced, and steady-state binding data fitted using a 1:1 binding model using Biacore S200 Evaluation Software (Cytiva, v. 1.1).
(§3) SPR binding studies of PEAK proteins to full length CrkII/Grb2 and sub-domains were performed using a Biacore 8K+ Instrument (Cytiva) and analyzed using Biacore Insight Evaluation Software (v. 3.0.12.15655). […] Binding studies and steady-state data analysis were performed as described for CrkII^NSH3 with the inclusion of an additional surface regeneration step (60 s injection of 1 M NaCl) between cycles.

CrkII^FL dimer = biological target: T6, CrkII^FL dimer (Homo sapiens, UniProt P46108); assay: SPR, CrkII FL dimer binding to immobilised PEAK proteins; conditions: interactor as analyte over biotinylated PEAK protein (biotin CAPture); Biacore 8K+, HBS-TP with 500 mM NaCl, 20 °C; steady-state fit; mean ± SD (N = 2)
T6 construct: full length CrkII (CrkII^FL; UniProt P46108-1, residues 1–330); 8-His tag with TEV protease cleavage site (N); made in house; host or cells: E. coli C41 (DE3)
T6 sequence (P46108 whole entry, the tested form may be a part): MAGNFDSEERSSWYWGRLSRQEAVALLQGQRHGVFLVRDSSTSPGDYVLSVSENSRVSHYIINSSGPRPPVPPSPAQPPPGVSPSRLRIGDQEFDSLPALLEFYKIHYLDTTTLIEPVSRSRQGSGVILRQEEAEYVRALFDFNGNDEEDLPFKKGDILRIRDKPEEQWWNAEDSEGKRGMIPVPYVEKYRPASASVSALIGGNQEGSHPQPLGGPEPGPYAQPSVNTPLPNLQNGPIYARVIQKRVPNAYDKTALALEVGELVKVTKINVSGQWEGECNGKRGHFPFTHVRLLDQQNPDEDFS
Protocol: as §2
SPR binding studies of PEAK proteins to full length CrkII/Grb2 and sub-domains were performed using a Biacore 8K+ Instrument (Cytiva) and analyzed using Biacore Insight Evaluation Software (v. 3.0.12.15655). […]

14-3-3ɣ = assay: SPR, 14-3-3ɣ binding to immobilised PEAK proteins; design: species or system human; conditions: 14-3-3ɣ analyte 0.46–1000 nM, multi-cycle, over immobilised biotinylated PEAK protein; Biacore 8K+, 20 °C; KD only an estimate (bivalent analyte model); N = 3
Protocol: PEAK proteins and adapters proteins (full length or individual domains) were biotinylated using EZ-Link™ NHS-PEG4-Biotin (Thermo Fisher) at a 1:1 molar ratio (100 µM) for 1 h at room temperature, then excess biotin was removed by buffer exchange using a Zeba™ Spin Desalting Column (Thermo Fisher) into HBS-T buffer (20 mM HEPES pH 7.4, 150 mM NaCl, 1 mM TCEP).
SPR binding studies of PEAK proteins to full length CrkII/Grb2 and sub-domains were performed using a Biacore 8K+ Instrument (Cytiva) and analyzed using Biacore Insight Evaluation Software (v. 3.0.12.15655). […] Biotinylated PEAK proteins (with or without Src phosphorylation; 500 nM in HBS-TP) were immobilized using a biotin CAPture kit (Cytiva) in HBS-TP running buffer at 20 °C. Binding studies and steady-state data analysis were performed as described for CrkII^NSH3 with the inclusion of an additional surface regeneration step (60 s injection of 1 M NaCl) between cycles. For Grb2^FL, Grb2^SH2, CrkII^SH2, CrkII^FL monomer and CrkII^FL dimer, to reduce nonspecific interactions the HBS-TP running buffer was supplemented with additional NaCl to a final concentration of 500 mM.
Binding studies for 14-3-3ɣ were undertaken in the same way in multi cycle mode (8 point, 3-fold serial dilution series, 0.46–1000 nM, 60 s contact time, 300 s dissociation).

CrkII^SH2 = biological target: T7, CrkII^SH2 (Homo sapiens, UniProt P46108); assay: SPR, CrkII SH2 binding to immobilised PEAK proteins; conditions: interactor as analyte over biotinylated PEAK protein (biotin CAPture); Biacore 8K+, HBS-TP with 500 mM NaCl, 20 °C; steady-state fit; mean ± S.E.M. (N = 3)
T7 construct: CrkII^SH2; UniProt P46108-1, residues 6–120; 8-His tag with TEV protease cleavage site (N); made in house; host or cells: E. coli C41 (DE3)
T7 sequence (P46108 6-120): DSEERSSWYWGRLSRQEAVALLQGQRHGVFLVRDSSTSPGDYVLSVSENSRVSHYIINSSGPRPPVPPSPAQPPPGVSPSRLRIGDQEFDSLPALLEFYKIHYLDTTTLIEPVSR
Protocol: as §2, §3

Compound: CC(=O)N[C@H](C(=O)N[C@@H](Cc1ccc(OP(=O)(O)O)cc1)C(=O)N[C@@H](CO)C(=O)N[C@@H](CC(N)=O)C(=O)N[C@@H](CC(C)C)C(=O)NCC(=O)N[C@@H](CCC(N)=O)C(N)=O)[C@@H](C)O [SH2-pY peptide]
- Kd (Grb2^FL): 2.6 µM

Compound: Cc1nc(Nc2ncc(C(=O)Nc3c(C)cccc3Cl)s2)cc(N2CCN(CCO)CC2)n1 [dasatanib]
- phosphorylation of PEAK3 at the TYSNL (pY24) site [1]: blocked

Compound: COc1cc(-c2nn(CCN3CCC(N(C)C)CC3)c3ncnc(N)c23)ccc1NC(=O)OC(C)(C)C [eCF506]
- phosphorylation of PEAK3 at the TYSNL (pY24) site [1]: blocked

Compound: PEAK3-FL E.coli: full length human PEAK3 (1–473) purified from E. coli, no bound 14-3-3
- Kd (CrkII^NSH3): 9.6 µM
- SPR KD, CrkII-SH2 (CrkII^SH2): No binding
- SPR KD, 14-3-3ɣ (14-3-3ɣ): No binding

Results, then the compound that gave them:

- Kd (14-3-3γ): > 100 µM
- Kd (14-3-3ε): > 100 µM
- Kd (14-3-3η): > 100 µM
- Kd (14-3-3σ (Homo sapiens)): > 100 µM
Compound: CC[C@H](C)[C@H](NC(=O)[C@H](CCSC)NC(=O)[C@H](CCCCN)NC(=O)[C@H](CCCCN)NC(=O)[C@@H]1CCCN1C(=O)[C@H](CC(C)C)NC(=O)[C@@H]1CCCN1C(=O)[C@@H]1CCCN1C(=O)[C@@H]1CCCN1C(C)=O)C(=O)N[C@H](C(=O)N[C@@H](CCCNC(=N)N)C(=O)N[C@@H](C)C(=O)N[C@@H](CC(N)=O)C(=O)N[C@H](C(=O)N[C@@H](CCC(=O)O)C(=O)N1CCC[C@H]1C(=O)N[C@H](C(=O)N[C@@H](CO)C(=O)N[C@@H](CCCCN)C(=O)N[C@@H](CC(=O)O)C(N)=O)[C@@H](C)CC)[C@@H](C)O)[C@@H](C)CC (single isomer, unassigned) [PEAK1^tandem]

- Kd (14-3-3γ): > 100 µM
- Kd (14-3-3ε): > 100 µM
- Kd (14-3-3η): > 100 µM
- Kd (14-3-3σ (Homo sapiens)): > 100 µM
Compound: CC[C@H](C)[C@H](NC(=O)[C@H](CCCCN)NC(=O)[C@H](CCCCN)NC(=O)[C@H](CCC(N)=O)NC(=O)[C@@H]1CCCN1C(=O)[C@H](CC(C)C)NC(=O)[C@@H]1CCCN1C(=O)[C@@H]1CCCN1C(=O)[C@@H]1CCCN1C(C)=O)C(=O)N[C@H](C(=O)N[C@@H](CO)C(=O)N[C@@H](CCCNC(=N)N)C(=O)N[C@@H](C)C(=O)N[C@@H](C)C(=O)N[C@@H](CO)C(=O)N[C@@H](CO)C(=O)N1CCC[C@H]1C(=O)N[C@@H](CC(=O)O)C(=O)NCC(=O)N[C@@H](Cc1ccccc1)C(N)=O)C(C)C (single isomer, unassigned) [PEAK2^tandem]

- Kd (CrkII^NSH3): 6.84 µM
- Kd (CrkII^FL dimer): 2.18 µM
- Kd (14-3-3ɣ): < 1 µM
Compound: PEAK3-FL (+ Src phosphorylation): insect cell PEAK3 (1–473) phosphorylated with recombinant Src kinase

- Kd (CrkII^NSH3): 3.87 µM
- SPR KD, CrkII-SH2 (CrkII^SH2): No binding
- Kd (14-3-3ɣ): < 1 µM
- SPR KD, 14-3-3ɣ (14-3-3ɣ): bound strongly
Compound: PEAK3-FL: full length human PEAK3 (1–473) from insect cells, S69 phosphorylated, purified as 14-3-3 complex
